Measured values taken from patent US11274085B2, “3-aryl-bicyclic [4,5,0] hydroxamic acids as HDAC inhibitors” (Valo Health, Inc., priority 2015, dated 2022).
pIC50: −log10 of the molar value.

Target: T1, human recombinant HDAC6 (Homo sapiens, UniProt Q9UBN7)
T1 sequence (Q9UBN7 1-1215): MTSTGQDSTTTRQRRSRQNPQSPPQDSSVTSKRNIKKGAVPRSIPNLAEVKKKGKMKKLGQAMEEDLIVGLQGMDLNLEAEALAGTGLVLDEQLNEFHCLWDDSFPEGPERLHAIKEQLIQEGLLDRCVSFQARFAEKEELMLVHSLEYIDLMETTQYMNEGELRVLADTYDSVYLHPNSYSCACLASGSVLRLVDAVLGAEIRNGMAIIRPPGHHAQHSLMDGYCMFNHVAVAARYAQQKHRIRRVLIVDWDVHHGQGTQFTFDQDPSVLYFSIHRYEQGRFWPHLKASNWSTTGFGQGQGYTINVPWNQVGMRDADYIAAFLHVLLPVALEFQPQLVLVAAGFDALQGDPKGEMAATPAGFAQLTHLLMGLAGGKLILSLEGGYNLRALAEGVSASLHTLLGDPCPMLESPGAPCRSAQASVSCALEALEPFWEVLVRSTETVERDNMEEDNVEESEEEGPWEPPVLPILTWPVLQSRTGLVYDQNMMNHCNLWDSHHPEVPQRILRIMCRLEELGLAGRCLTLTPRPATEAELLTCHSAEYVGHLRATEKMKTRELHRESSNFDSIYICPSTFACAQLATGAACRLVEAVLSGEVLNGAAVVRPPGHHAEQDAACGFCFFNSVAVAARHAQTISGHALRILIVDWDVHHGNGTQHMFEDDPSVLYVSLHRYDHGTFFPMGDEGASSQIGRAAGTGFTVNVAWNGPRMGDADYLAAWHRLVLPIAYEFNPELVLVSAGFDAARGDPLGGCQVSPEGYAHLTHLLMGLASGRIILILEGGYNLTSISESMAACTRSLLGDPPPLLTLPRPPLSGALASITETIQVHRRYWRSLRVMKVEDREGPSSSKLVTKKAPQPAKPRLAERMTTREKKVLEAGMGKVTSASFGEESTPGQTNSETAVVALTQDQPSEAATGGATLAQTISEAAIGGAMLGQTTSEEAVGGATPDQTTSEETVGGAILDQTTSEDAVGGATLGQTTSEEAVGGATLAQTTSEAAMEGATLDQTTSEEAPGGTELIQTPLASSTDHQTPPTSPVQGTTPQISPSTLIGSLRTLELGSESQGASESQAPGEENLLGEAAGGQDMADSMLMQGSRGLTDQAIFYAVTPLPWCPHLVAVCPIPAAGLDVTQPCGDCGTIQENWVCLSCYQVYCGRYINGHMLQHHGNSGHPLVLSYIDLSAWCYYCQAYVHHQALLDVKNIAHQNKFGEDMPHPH
Assay: In vitro histone deacetylase assay: enzymatic HDAC6 electrophoretic mobility shift assay
Assay type: biochemical
Conditions: full length human recombinant HDAC6 1 nM, 2 μM peptide substrate RHKK(Ac)-NH2, 25° C.; read-out: Inhibitory Concentration (IC50) against HDAC6, Activity Range
Experimental: The enzymatic HDAC6 assay was performed using electrophoretic mobility shift assay. […] The enzymatic reactions were assembled in 384 well plates and in a total volume of 25 μL in a reaction buffer comprising: 100 mM HEPES, pH 7.5, 25 mM KCl, 0.1% bovine serum albumin, 0.01% Triton X-100, 1% DMSO (from compounds), 2 μM of the fluorescently labeled peptide substrate, and enzyme. The enzyme was added at a final concentration of 1 nM and the peptide substrate RHKK(Ac)—NH2 was used. The compounds were tested at 12 concentrations spaced by 3× dilution intervals. Negative control samples (0%-inhibition in the absence of inhibitor) and positive control samples (100%-inhibition) were assembled in replicates of four in each assay plate. The reactions were incubated at 25° C. and quenched by the addition of 45 μL of termination buffer (100 mM HEPES, pH 7.5, 0.01% Triton X-100, 0.05% SDS).
The terminated assay plates were analyzed on LabChip® 3000 microfluidic electrophoresis instrument (Perkin Elmer/Caliper Life Sciences). The fluorescence intensity of the electrophoretically separated de-acetylated product and substrate peptide was measured. Activity in each sample was determined as the product to sum ratio (PSR):P/(S+P), where P is the peak height of the product peptide and S is the peak height of the substrate peptide. Percent inhibition (Pinh) is determined using the following equation: Pinh=(PSR0%−PSRinh)/(PSR0%−PSR100%)*100, where PSRinh is the product sum ratio in the presence of inhibitor, PSR0% is the average product sum ration in the absence of inhibitor, and PSR100% is the average product sum ratio in 100%-inhibition control samples. The IC50 values of inhibitors were determined by fitting the %-inhibition curves with 4 parameter dose-response model using XLfit 4 software.
As set forth in Table 4, below, IC50 values are defined as follows: IC50≤0.1 μM (+++); IC50>0.1 μM and ≤0.5 μM (++); IC50>0.5 μM (+).

Row | pIC50 | Structure (SMILES)
1 | < 6.30 | O=C(NO)c1ccc2c(c1)OC[C@@H](c1cccnc1)N(C(=O)N1CCOCC1)C2 (single isomer, unassigned)
2 | ≥ 7.00 | O=C(NO)c1ccc2c(c1)OC[C@H](c1cccnc1)N(C(=O)N1CCOCC1)C2 (single isomer, unassigned)
3 | 6.30 to 7.00 | O=C(NO)c1ccc2c(c1)OC[C@@H](c1ccccc1)N(c1ccccc1)C2 [(R)-N-hydroxy-3,4-diphenyl-2,3,4,5-tetrahydrobenzo[f][1,4]oxazepine-8-carboxamide]
4 | ≥ 7.00 | COc1ccc(CN2Cc3ccc(C(=O)NO)cc3OC[C@H]2c2ccccc2)cc1 [(R)-N-hydroxy-4-(4-methoxybenzyl)-3-phenyl-2,3,4,5-tetrahydrobenzo[f][1,4]oxazepine-8-carboxamide]
5 | ≥ 7.00 | CN1Cc2ccc(C(=O)NO)cc2OC[C@H]1c1ccccc1 [(R)-N-hydroxy-4-methyl-3-phenyl-2,3,4,5-tetrahydrobenzo[f][1,4]oxazepine-8-carboxamide]
6 | ≥ 7.00 | O=C(NO)c1ccc2c(c1)OC[C@H](c1cccc(Cl)c1)N(C(=O)N1CCOCC1)C2 [(S)-3-(3-chlorophenyl)-N-hydroxy-4-(morpholine-4-carbonyl)-2,3,4,5-tetrahydrobenzo[f][1,4]oxazepine-8-carboxamide]
7 | ≥ 7.00 | O=C(NO)c1ccc2c(c1)OC[C@H](c1ccc(Cl)cc1)N(C(=O)N1CCOCC1)C2 [(S)-3-(4-chlorophenyl)-N-hydroxy-4-(morpholine-4-carbonyl)-2,3,4,5-tetrahydrobenzo[f][1,4]oxazepine-8-carboxamide]
8 | ≥ 7.00 | O=C(NO)c1ccc2c(c1)OC[C@H](c1ccc(F)cc1)N(C(=O)N1CCOCC1)C2 [(S)-3-(4-fluorophenyl)-N-hydroxy-4-(morpholine-4-carbonyl)-2,3,4,5-tetrahydrobenzo[f][1,4]oxazepine-8-carboxamide]
9 | ≥ 7.00 | CC(=O)N1CCN(C(=O)N2Cc3ccc(C(=O)NO)cc3OC[C@@H]2c2ccccc2)CC1 [(S)-4-(4-acetylpiperazine-1-carbonyl)-N-hydroxy-3-phenyl-2,3,4,5-tetrahydrobenzo[f][1,4]oxazepine-8-carboxamide]
10 | 6.30 to 7.00 | O=C(NO)c1ccc2c(c1)OC[C@H](c1ccccc1)N(S(=O)(=O)c1ccc(F)cc1)C2 [(S)-4-((4-fluorophenyl)sulfonyl)-N-hydroxy-3-phenyl-2,3,4,5-tetrahydrobenzo[f][1,4]oxazepine-8-carboxamide]
11 | ≥ 7.00 | O=C(NO)c1ccc2c(c1)OC[C@H](c1ccccc1)N(C(=O)NC1CCCCC1)C2 [(S)-N4-cyclohexyl-N8-hydroxy-3-phenyl-2,3-dihydrobenzo[f][1,4]oxazepine-4,8(5H)-dicarboxamide]
12 | ≥ 7.00 | O=C(NO)c1ccc2c(c1)OC[C@H](c1ccccc1)N(C(=O)Nc1cccnc1)C2 [(S)-N8-hydroxy-3-phenyl-N4-(pyridin-3-yl)-2,3-dihydrobenzo[f][1,4]oxazepine-4,8(5H)-dicarboxamide]
13 | ≥ 7.00 | O=C(NO)c1ccc2c(c1)OC[C@H](c1ccccc1)N(C(=O)Nc1ccncc1)C2 [(S)-N8-hydroxy-3-phenyl-N4-(pyridin-4-yl)-2,3-dihydrobenzo[f][1,4]oxazepine-4,8(5H)-dicarboxamide]
14 | ≥ 7.00 | O=C(NO)c1ccc2c(c1)OC[C@H](c1ccccc1)N(C(=O)NC1CCOCC1)C2 [(S)-N8-hydroxy-3-phenyl-N4-(tetrahydro-2H-pyran-4-yl)-2,3-dihydrobenzo[f][1,4]oxazepine-4,8(5H)-dicarboxamide]
15 | ≥ 7.00 | O=C(NO)c1ccc2c(c1)OC[C@H](c1ccccc1)N(C(=O)Nc1ccccc1)C2 [(S)-N8-hydroxy-N4,3-diphenyl-2,3-dihydrobenzo[f][1,4]oxazepine-4,8(5H)-dicarboxamide]
16 | ≥ 7.00 | CN(C)C(=O)N1Cc2ccc(C(=O)NO)cc2OC[C@@H]1c1ccccc1 [(S)-N8-hydroxy-N4,N4-dimethyl-3-phenyl-2,3-dihydrobenzo[f][1,4]oxazepine-4,8(5H)-dicarboxamide]
17 | ≥ 7.00 | O=C(NO)c1ccc2c(c1)OC[C@H](c1ccccc1)N(c1ccccc1)C2 [(S)-N-hydroxy-3,4-diphenyl-2,3,4,5-tetrahydrobenzo[f][1,4]oxazepine-8-carboxamide]
18 | ≥ 7.00 | O=C(NO)c1ccc2c(c1)OC[C@H](c1ccccc1)N(C(=O)N1CCCCC1)C2 [(S)-N-hydroxy-3-phenyl-4-(piperidine-1-carbonyl)-2,3,4,5-tetrahydrobenzo[f][1,4]oxazepine-8-carboxamide]
19 | ≥ 7.00 | O=C(NO)c1ccc2c(c1)OC[C@H](c1ccccc1)N(C(=O)N1CCCC1)C2 [(S)-N-hydroxy-3-phenyl-4-(pyrrolidine-1-carbonyl)-2,3,4,5-tetrahydrobenzo[f][1,4]oxazepine-8-carboxamide]
20 | ≥ 7.00 | COc1ccc(CN2Cc3ccc(C(=O)NO)cc3OC[C@@H]2c2ccccc2)cc1 [(S)-N-hydroxy-4-(4-methoxybenzyl)-3-phenyl-2,3,4,5-tetrahydrobenzo[f][1,4]oxazepine-8-carboxamide]
21 | ≥ 7.00 | COC1CCN(C(=O)N2Cc3ccc(C(=O)NO)cc3OC[C@@H]2c2ccccc2)CC1 [(S)-N-hydroxy-4-(4-methoxypiperidine-1-carbonyl)-3-phenyl-2,3,4,5-tetrahydrobenzo[f][1,4]oxazepine-8-carboxamide]
22 | ≥ 7.00 | CN1CCN(C(=O)N2Cc3ccc(C(=O)NO)cc3OC[C@@H]2c2ccccc2)CC1 [(S)-N-hydroxy-4-(4-methylpiperazine-1-carbonyl)-3-phenyl-2,3,4,5-tetrahydrobenzo[f][1,4]oxazepine-8-carboxamide]
23 | ≥ 7.00 | O=C(NO)c1ccc2c(c1)OC[C@H](c1ccc(C(F)(F)F)cc1)N(C(=O)N1CCOCC1)C2 [(S)-N-hydroxy-4-(morpholine-4-carbonyl)-3-(4-(trifluoromethyl)phenyl)-2,3,4,5-tetrahydrobenzo[f][1,4]oxazepine-8-carboxamide]
24 | ≥ 7.00 | Cc1ccc([C@H]2COc3cc(C(=O)NO)ccc3CN2C(=O)N2CCOCC2)cc1 [(S)-N-hydroxy-4-(morpholine-4-carbonyl)-3-(p-tolyl)-2,3,4,5-tetrahydrobenzo[f][1,4]oxazepine-8-carboxamide]
25 | ≥ 7.00 | O=C(NO)c1ccc2c(c1)OC[C@H](c1ccccc1)N(C(=O)N1CCOCC1)C2 [(S)-N-hydroxy-4-(morpholine-4-carbonyl)-3-phenyl-2,3,4,5-tetrahydrobenzo[f][1,4]oxazepine-8-carboxamide]
26 | ≥ 7.00 | CN1Cc2ccc(C(=O)NO)cc2OC[C@@H]1c1ccccc1 [(S)-N-hydroxy-4-methyl-3-phenyl-2,3,4,5-tetrahydrobenzo[f][1,4]oxazepine-8-carboxamide]
